One assay deals with IL-23 (p19/p40). Nature of the assay: IL23-p19 ELISA, dendritic cells (DC differentiated from human PBMC, IFNγ primed), LPS stimulated. In kind it is cell-based. Conditions: Dendritic cell, human PBMC-derived dendritic cells, 1 h compound pre-incubation, LPS 1 μg/ml 18 hours, 10 pt. The protocol: Compound Screening Using DC Cells
I. Differentiation of PBMC's to DC Cells:
After 2 hours, the media including floating cells was aspirated out carefully and 12 ml of fresh RPMI media (10% FBS) containing GMCSF (100 ng/ml) and IL4 (20 ng/ml) was added, and the flask was kept in a 37° C. incubator for 7 days.
After 3 days, fresh GMCSF (100 ng/ml) and IL4 (20 ng/ml) were added to the flask and the incubation continued. After 7 days, the fully differentiated cells were harvested by spinning down (1200 rpm/5 min) and aspirating the media. The cells were suspended in fresh RPMI media (10% FBS) containing 50 ng/ml IFNγ (1000 U/ml) and then plated (50K/well in 100 μl) onto a white clear bottom 96 well plate and left in a 37° C. incubator for 24 hours.
II. Addition of Compounds:
After 24 hours incubation, 100 μl of RPMI media was added containing 2× concentrated test compound per well to the above cell-culture media (final concentration becomes 1×) and the plates were pre-incubated for 1 hour at 37° C. before stimulating with LPS.
The mixture was shaken and incubated the plates at 37° C. for an additional 18 hours.
155 μl of the supernatant was harvested from each well carefully (without the tip touching the bottom of the well) and to the remaining 50 μl/well of the cell culture plate was added 50 μl of Cell Titer Glo reagent. The mixture was incubated for 1-2 minutes on a shaker and the plate was read for luminescence intensity to determine the compound cytotoxicity. The cell culture supernatant collected above was used to carry out IL23 ELISA (65 μl—Supernatant) and IL10 ELISA (90 μl—Supernatant) as described below.
Human IL-23 (p19/p40) ELISA Protocol (e-Biosciences)
To 10.5 ml PBS add 50 μl of anti-IL23 (p19) was added capture antibody (2.5 μg/ml). The mixture was mixed well and 100 μl of the coating solution was added to each well of the 96 well white plates from Pierce. The wells were covered and incubated overnight at 4° C.
The anti-IL23 (p19)-antibody-coated plates were washed 2× using TBST (use plate washer) and blocked using 200 μl of 0.5% Casein for 1.5-2 hours at room temperature with shaking.
Addition of Supernatant and Detection:
The plates were washed 2× using TBST and the supernatant was transferred (65 μl/well) to the above pre-blocked/IL23(p19)-antibody-coated 96 well plate, and incubated at room temperature for 1.5 hours with shaking.
The plates were washed 4× using TBST (plate washer) and 100 μl/well detection antibody solution prepared from 2 μl of biotin labeled anti-IL-12 (p40/p70) antibody in 11 ml 1% BSA/PBS solution (1-5000 dilution) was added. The plates were incubated for 1 hour with shaking at Room temperature.
Again, the plates were washed 4× with TBST and 100 μl of HRP labeled Streptavidin (R&D Systems) solution (10 μl/10 ml 1% BSA solution) was added, and the plates were incubated at room temperature for another 45 minutes with shaking.
After 45 minutes, the plates were washed with TBST 4× and 100 μl/well Super Signal ELISA Pico Chemiluminescent Substrate from Pierce (3.5 ml A+3.5 ml B+3.5 ml MQ water) was added. The plates were shaken for 1-2 minutes then read on a plate reader.

The test system of the next assay is IL-23p19. Nature of the assay: LPS Induced IL23p19 in THP-1 Cells (with IFNγ Primed) Assay. Conditions: Homo sapiens, IFNγ (50 ng/mL) primed, 1 hour compound pre-incubation, LPS 1 ug/mL 18 hours, 10 pt, read-out: IL23-p19 ELISA, THP1-IFNy, LPS, 10 pt EC50. In kind it is cell-based, human. In a few lines:
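THP-1 cells (50K/well) primed ~18 h with IFNγ (50 ng/mL) in RPMI/10% FBS, then incubated with compound in duplicate for 18 h at 37° C. Supernatant IL-23p19 measured by chemiluminescent sandwich ELISA, giving EC50 by curve fitting. Toxicity assessed in parallel on the remaining cells by Cell Titer Glo.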
(In general: An ELISA detects its analyte on a solid surface through an enzyme-linked reagent.)

Structures can show the parent of a compound that is named as a salt. Where two headings read alike, the source gives them in different places.

As a reminder, the EC50 is the concentration needed to bring the measured effect to its halfway point.

As to `Cc1cncc(-c2cccc(C(=O)Nc3cn(C)nc3N3CCCCC3)n2)c1` [Compound I-76, 5′-methyl-N-(1-methyl-3-(piperidin-1-yl)-1H-pyrazol-4-yl)-[2,3′-bipyridine]-6-carboxamide], the EC50 in the assay on IL-23 (p19/p40) amounted to 4320 nM; with IL-23p19 (THP-1, THP-1 cells), 1930 nM.
For `Cc1cncc(-c2cccc(C(=O)Nc3cn(C)nc3N3CCOCC3)n2)c1` [Compound I-77, 5′-methyl-N-(1-methyl-3-morpholino-1H-pyrazol-4-yl)-[2,3′-bipyridine]-6-carboxamide] the same measures were 2160 nM and 33200 nM.
Regarding `Cc1n[nH]cc1-c1cccc(C(=O)Nc2cn(C)nc2-c2ccccn2)n1` [Compound I-78, 6-(3-methyl-1H-pyrazol-4-yl)-N-(1-methyl-3-(pyridin-2-yl)-1H-pyrazol-4-yl)picolinamide], the EC50 in the assay on IL-23 (p19/p40) came to 832 nM; in the assay with IL-23p19 (THP-1, THP-1 cells) it was 643 nM.
For `CC(C)n1cc(NC(=O)c2cccc(-c3cn[nH]c3)n2)c(-c2ccccn2)n1` [Compound I-80, N-(1-isopropyl-3-(pyridin-2-yl)-1H-pyrazol-4-yl)-6-(1H-pyrazol-4-yl)picolinamide] the same measures were 8790 nM and 2390 nM.
For `Cc1cncc(-c2cccc(C(=O)Nc3cn(C(C)C)nc3-c3ccccn3)n2)c1` [Compound I-81, N-(1-isopropyl-3-(pyridin-2-yl)-1H-pyrazol-4-yl)-5′-methyl-[2,3′-bipyridine]-6-carboxamide] the same measures were 6470 nM and 2780 nM.
For `O=C(Nc1cn(CCN2CCOCC2)nc1-c1ccccn1)c1cccc(-c2cn[nH]c2)n1` [Compound I-83, N-(1-(2-morpholinoethyl)-3-(pyridin-2-yl)-1H-pyrazol-4-yl)-6-(1H-pyrazol-4-yl)picolinamide] the same measures were 82700 nM and 2010 nM.
Consider `CN1CCN(CCn2cc(NC(=O)c3cccc(-c4cn[nH]c4)n3)c(-c3ccccn3)n2)CC1` [Compound I-86, N-(1-(2-(4-methylpiperazin-1-yl)ethyl)-3-(pyridin-2-yl)-1H-pyrazol-4-yl)-6-(1H-pyrazol-4-yl)picolinamide], for which the EC50 with IL-23 (p19/p40) worked out at 407 nM; in the assay with IL-23p19 (THP-1, THP-1 cells) it was 98.5 nM.
For `Cc1cncc(-c2cccc(C(=O)Nc3cn(CCN4CCN(C)CC4)nc3-c3ccccn3)n2)c1` [Compound I-87, 5′-methyl-N-(1-(2-(4-methylpiperazin-1-yl)ethyl)-3-(pyridin-2-yl)-1H-pyrazol-4-yl)-[2,3′-bipyridine]-6-carboxamide] the same measures were 2000 nM and 75.4 nM.
For `Cn1cc(NC(=O)c2cccc(-c3ccncc3)n2)c(-c2cnccn2)n1` [Compound I-100, N-(1-methyl-3-(pyrazin-2-yl)-1H-pyrazol-4-yl)-[2,4′-bipyridine]-6-carboxamide], the EC50 in the assay on IL-23 (p19/p40) was 9850 nM; in the assay on IL-23p19 (THP-1, THP-1 cells) it was 64100 nM.
For the compound `Cn1cc(NC(=O)c2cccc(-c3cccnc3)n2)c(-c2cnccn2)n1` [Compound I-101, N-(1-methyl-3-(pyrazin-2-yl)-1H-pyrazol-4-yl)-[2,3′-bipyridine]-6-carboxamide], the EC50 with IL-23 (p19/p40) stood at 1830 nM; in the assay with IL-23p19 (THP-1, THP-1 cells), 14500 nM.
For `CC(=O)Nc1ccc(-c2cccc(C(=O)Nc3cn(C)nc3-c3cnccn3)n2)cn1` [Compound I-102, 6′-acetamido-N-(1-methyl-3-(pyrazin-2-yl)-1H-pyrazol-4-yl)-[2,3′-bipyridine]-6-carboxamide], the EC50 was found to be 2040 nM in the assay with IL-23 (p19/p40) and 26700 nM with IL-23p19 (THP-1, THP-1 cells).
Turning to `O=C(Nc1cn(CCO)nc1-c1ccccn1)c1cccc(-c2ccncc2)n1` [Compound I-108, N-(1-(2-hydroxyethyl)-3-(pyridin-2-yl)-1H-pyrazol-4-yl)-[2,4′-bipyridine]-6-carboxamide formate], the EC50 in the assay on IL-23 (p19/p40) was 4920 nM; in the assay with IL-23p19 (THP-1, THP-1 cells), 5960 nM.
On to `O=C(Nc1cn(C2COC2)nc1-c1ccccn1)c1cccc(-c2cccnc2)n1` [Compound I-112, N-(1-(oxetan-3-yl)-3-(pyridin-2-yl)-1H-pyrazol-4-yl)-[2,3′-bipyridine]-6-carboxamide], for which the EC50 in the assay with IL-23 (p19/p40) was 1280 nM; in the assay on IL-23p19 (THP-1, THP-1 cells) it was 325 nM.
With `O=C(Nc1cn(C2COC2)nc1-c1ccccn1)c1cccc(Br)n1` [Compound I-113, 6-bromo-N-(1-(oxetan-3-yl)-3-(pyridin-2-yl)-1H-pyrazol-4-yl)picolinamide], the half-maximal effective concentration (EC50) turned out to be 10900 nM in the assay on IL-23 (p19/p40) and 8040 nM in the assay on IL-23p19 (THP-1, THP-1 cells).
As to `Cc1cncc(-c2cccc(C(=O)Nc3cn(C4COC4)nc3-c3ccccn3)n2)c1` [Compound I-114, 5′-methyl-N-(1-(oxetan-3-yl)-3-(pyridin-2-yl)-1H-pyrazol-4-yl)-[2,3′-bipyridine]-6-carboxamide], the EC50 in the assay on IL-23 (p19/p40) came out at 2330 nM; in the assay with IL-23p19 (THP-1, THP-1 cells) it was 1760 nM.
Consider `CS(=O)(=O)Nc1cncc(-c2cccc(C(=O)Nc3cn(C4COC4)nc3-c3ccccn3)n2)c1` [Compound I-115, 5′-(methylsulfonamido)-N-(1-(oxetan-3-yl)-3-(pyridin-2-yl)-1H-pyrazol-4-yl)-[2,3′-bipyridine]-6-carboxamide], for which the EC50 with IL-23 (p19/p40) stood at 7650 nM; in the assay on IL-23p19 (THP-1, THP-1 cells), 2180 nM.
Consider `O=C(Nc1cn(C2COC2)nc1-c1ccccn1)c1cccc(-c2cn[nH]c2)n1` [Compound I-116, N-(1-(oxetan-3-yl)-3-(pyridin-2-yl)-1H-pyrazol-4-yl)-6-(1H-pyrazol-4-yl)picolinamide], for which the EC50 in the assay on IL-23 (p19/p40) stood at 142 nM; in the assay on IL-23p19 (THP-1, THP-1 cells), 212 nM.
For `O=C(Nc1cn(C2COC2)nc1-c1ccccn1)c1cccc(-c2cc[nH]n2)n1` [Compound I-117, N-(1-(oxetan-3-yl)-3-(pyridin-2-yl)-1H-pyrazol-4-yl)-6-(1H-pyrazol-3-yl)picolinamide], the EC50 in the assay on IL-23 (p19/p40) was 100 nM; in the assay with IL-23p19 (THP-1, THP-1 cells), 156 nM.
Consider `CS(=O)(=O)Nc1cncc(-c2cccc(C(=O)Nc3cn(C4COC4)nc3-c3ccccn3)n2)c1` [Compound I-119, sodium (methylsulfonyl)(6-((1-(oxetan-3-yl)-3-(pyridin-2-yl)-1H-pyrazol-4-yl)carbamoyl)-[2,3′-bipyridine]-5′-yl)amide], for which the values for the EC50 with IL-23 (p19/p40) (Homo sapiens) and in the assay with IL-23p19 (THP-1 cells) were 1000 nM and 1020 nM, respectively.
`Cc1cncc(-c2ccnc(C(=O)Nc3cn(C)nc3-c3ccccn3)n2)c1` [Compound I-120, N-(1-methyl-3-(pyridin-2-yl)-1H-pyrazol-4-yl)-4-(5-methylpyridin-3-yl)pyrimidine-2-carboxamide]: the EC50 is 2990 nM in the assay with IL-23 (p19/p40) and 46900 nM with IL-23p19 (THP-1, THP-1 cells).
With `Cc1cncc(-c2cncc(C(=O)Nc3cn(C)nc3-c3ccccn3)n2)c1` [Compound I-121, N-(1-methyl-3-(pyridin-2-yl)-1H-pyrazol-4-yl)-6-(5-methylpyridin-3-yl)pyrazine-2-carboxamide], the EC50 in the assay with IL-23 (p19/p40) amounted to 1810 nM; with IL-23p19 (THP-1, THP-1 cells), 1070 nM.
For `Cn1cc(NC(=O)c2cncc(-c3cn[nH]c3)n2)c(-c2ccccn2)n1` [Compound I-122, N-(1-methyl-3-(pyridin-2-yl)-1H-pyrazol-4-yl)-6-(1H-pyrazol-4-yl)pyrazine-2-carboxamide] the same measures were 3780 nM and 873 nM.
In the same order, the values of `Cn1cc(NC(=O)c2cncc(-c3cc[nH]n3)n2)c(-c2ccccn2)n1` [Compound I-123, N-(1-methyl-3-(pyridin-2-yl)-1H-pyrazol-4-yl)-6-(1H-pyrazol-3-yl)pyrazine-2-carboxamide] are 738 nM and 921 nM.

The values above are taken from patent publication US10947216B2, “Amide compounds and method for making and using” (Rigel Pharmaceuticals, Inc., priority 2016, dated 2021).
